Measurements taken from PMC11745148, “Identification of Cannabidiolic and Cannabigerolic Acids as MTDL AChE, BuChE, and BACE‐1 Inhibitors Against Alzheimer's Disease by In Silico, In Vitro, and In Vivo Studies” (Phytotherapy Research, 2024).
Where two headings read alike, the source gives them in different places.

Assays:
[1] = tested on: sAβ-injected mice; experiment: Tail suspension test in sAβ-induced AD mouse model; assay type: in vivo, CD1 male mice; settings: 10 mg/kg i.p. repeated, days 3 to 10 after sAβ; sAβ/veh 74.250 ± 7.465; mean ± SEM
[2] = tested on: PPARα/γ; settings: ref D'Aniello et al. [2019]; cited from earlier work
[3] = tested on: TRPM7; settings: ref Suzuki et al. [2023]; cited from earlier work
[4] = molecular target: T1, GPR109A (HCA2) (Homo sapiens, UniProt Q8TDS4); experiment: β-arrestin recruitment assay on GPR109A (HCA2-Tango, HTLA-HEK293 cells); assay type: cell-based; settings: HTLA-HEK293 cells expressing HCA2; different doses; 20 h; vs vehicle
T1 construct: Tango fusion module; host or cells: HTLA-HEK293 cells stably expressing β-arrestin2-TEV and tTA-driven luciferase

[5] = tested on: sAβ-injected mice; experiment: Novel object recognition test in sAβ-induced AD mouse model; assay type: in vivo, CD1 male mice; settings: 10 mg/kg i.p. repeated, days 3 to 10 after sAβ; test at 1 h; sAβ/veh −0.115 ± 0.030; mean ± SEM
[6] = molecular target: T2, Human β-amyloid peptide (1–40) (Homo sapiens, UniProt P05067); experiment: Aβ 1–40 self-aggregation inhibition assay (thioflavine T); assay type: biochemical; settings: 96 μM peptide, 37°C, 24 h
T2 construct: Human β‐amyloid peptide (1–40, cat. ab120479); purchased Abcam ab120479

[7] = molecular target: T3, butirrylcholinesterase from equine serum BuChE (Equus caballus, UniProt P81908); experiment: Cholinesterase activity by the Elmann method, kinetic parameters and Ki on BuChE; assay type: biochemical; settings: for inhibition type on BuChE: decrease of Vmax without affecting Km
T3 construct: purchased Sigma-Aldrich; host or cells: equine serum

[8] = molecular target: T4, Acetylcholinesterase from Electrophorus electricus AChE (Electrophorus electricus, UniProt O42275); experiment: Cholinesterase activity by the Elmann method, kinetic parameters and Ki on AChE; assay type: biochemical; settings: for inhibition type on AChE: increase in Km without affecting Vmax
T4 construct: purchased Sigma-Aldrich

[9] = molecular target: T5, mouse BACE-1 (Mus musculus, UniProt P56818); experiment: BACE-1 activity, fluorimetric method; assay type: biochemical; settings: for IC50: mouse BACE-1, pH 4.5, semilogarithmic plot
T5 construct: purchased Life Technology

[10] = tested on: LEC-DG pathway (hippocampus) of sAβ-injected mice; experiment: In vivo LTP recording in the LEC-DG pathway of sAβ-injected mice; design: species or system CD1 male mice; settings: 10 mg/kg i.p. repeated; for fEPSP slope after TBS: 30–60 min after TBS, sAβ/veh 110.92 ± 0.86; for fEPSP slope after TBS / fEPSP amplitude 30–60 min after TBS: relative to baseline; for fEPSP amplitude 30–60 min after TBS: sAβ/veh 110.5 ± 1.73
[11] = tested on: TRPM7; experiment: Trpm7 mRNA expression in hippocampus by qPCR; assay type: in vivo, mouse; settings: treatment day 3 to 10 postinduction; upregulated by sAβ
[12] = molecular target: T6, cannabinoid CB2 receptor (CNR2-Tango) (Homo sapiens, UniProt P34972); experiment: β-arrestin recruitment assay, positive control CNR2-Tango; assay type: cell-based
T6 construct: Tango fusion module; expressed in transfected cells; host or cells: HTLA-HEK293 cells

[13] = especially in a tween-based vehicle; ref Anderson et al. [2019]; cited from earlier work
[14] = BuChE, Exp. 1, inhibitor 10 µM, Lineweaver-Burk equation, from decrease of Vmax, mean Ki in μM, read-out: Ki LB
[15] = BuChE, Exp. 1, inhibitor 10 µM, Lineweaver-Burk equation, no inhibitor 0.295
[16] = BuChE, Exp. 1, inhibitor 10 µM, Michaelis-Menten interpolation, from decrease of Vmax, mean Ki in μM, read-out: Ki MM
[17] = BuChE, Exp. 1, inhibitor 10 µM, Michaelis-Menten interpolation, no inhibitor 0.299
[18] = BuChE, Exp. 2, inhibitor 2.66 µM, Lineweaver-Burk equation, from decrease of Vmax, mean Ki in μM, read-out: Ki LB
[19] = BuChE, Exp. 2, inhibitor 2.66 µM, Lineweaver-Burk equation, no inhibitor 0.220
[20] = BuChE, Exp. 2, inhibitor 2.66 µM, Michaelis-Menten interpolation, from decrease of Vmax, mean Ki in μM, read-out: Ki MM
[21] = mean over experiments, n = 4, noncompetitive inhibition, read-out: calculated Ki, BuChE
[22] = AChE, inhibitor 1.25 µM, Lineweaver-Burk equation, from increase of Km, mean Ki in μM, read-out: Ki LB
[23] = AChE, inhibitor 1.25 µM, Michaelis-Menten interpolation, from increase of Km, mean Ki in μM, read-out: Ki MM
[24] = AChE, inhibitor 2.50 µM, Lineweaver-Burk equation, from increase of Km, mean Ki in μM, read-out: Ki LB
[25] = AChE, inhibitor 3.00 µM, Lineweaver-Burk equation, from increase of Km, mean Ki in μM, read-out: Ki LB
[26] = AChE, inhibitor 3.00 µM, Michaelis-Menten interpolation, from increase of Km, mean Ki in μM, read-out: Ki MM
[27] = mean over experiments, n = 6 CBDA, n = 7 CBGA, competitive inhibition, read-out: calculated Ki, AChE

T3 sequence (P81908 whole entry): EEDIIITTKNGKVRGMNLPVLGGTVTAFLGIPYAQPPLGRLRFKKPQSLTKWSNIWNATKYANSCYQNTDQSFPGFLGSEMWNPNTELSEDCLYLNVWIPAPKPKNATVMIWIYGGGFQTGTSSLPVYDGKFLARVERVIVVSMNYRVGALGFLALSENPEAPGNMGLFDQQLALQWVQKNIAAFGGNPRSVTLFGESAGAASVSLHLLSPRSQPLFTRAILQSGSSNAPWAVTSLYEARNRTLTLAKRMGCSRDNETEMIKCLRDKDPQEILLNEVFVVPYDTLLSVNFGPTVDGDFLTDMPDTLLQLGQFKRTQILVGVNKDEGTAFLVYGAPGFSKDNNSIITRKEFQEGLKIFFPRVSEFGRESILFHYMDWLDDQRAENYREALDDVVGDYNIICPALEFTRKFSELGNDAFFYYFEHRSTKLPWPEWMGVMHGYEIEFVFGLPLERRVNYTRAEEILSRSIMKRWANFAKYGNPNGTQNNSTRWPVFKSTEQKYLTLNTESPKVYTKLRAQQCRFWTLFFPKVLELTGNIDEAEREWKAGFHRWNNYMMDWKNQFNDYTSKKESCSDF
T5 sequence (P56818 46-501): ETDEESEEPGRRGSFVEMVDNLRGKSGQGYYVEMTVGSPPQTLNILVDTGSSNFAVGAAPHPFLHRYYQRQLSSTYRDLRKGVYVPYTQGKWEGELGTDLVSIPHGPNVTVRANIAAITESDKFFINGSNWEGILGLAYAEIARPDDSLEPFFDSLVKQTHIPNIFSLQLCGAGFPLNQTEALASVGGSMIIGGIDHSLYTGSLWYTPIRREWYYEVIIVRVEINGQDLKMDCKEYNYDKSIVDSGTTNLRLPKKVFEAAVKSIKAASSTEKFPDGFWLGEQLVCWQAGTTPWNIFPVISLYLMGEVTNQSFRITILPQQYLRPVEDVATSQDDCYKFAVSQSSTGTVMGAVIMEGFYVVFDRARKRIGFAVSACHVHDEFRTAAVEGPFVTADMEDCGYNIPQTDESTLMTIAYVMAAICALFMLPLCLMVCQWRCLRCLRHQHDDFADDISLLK
T4 sequence (O42275 24-633): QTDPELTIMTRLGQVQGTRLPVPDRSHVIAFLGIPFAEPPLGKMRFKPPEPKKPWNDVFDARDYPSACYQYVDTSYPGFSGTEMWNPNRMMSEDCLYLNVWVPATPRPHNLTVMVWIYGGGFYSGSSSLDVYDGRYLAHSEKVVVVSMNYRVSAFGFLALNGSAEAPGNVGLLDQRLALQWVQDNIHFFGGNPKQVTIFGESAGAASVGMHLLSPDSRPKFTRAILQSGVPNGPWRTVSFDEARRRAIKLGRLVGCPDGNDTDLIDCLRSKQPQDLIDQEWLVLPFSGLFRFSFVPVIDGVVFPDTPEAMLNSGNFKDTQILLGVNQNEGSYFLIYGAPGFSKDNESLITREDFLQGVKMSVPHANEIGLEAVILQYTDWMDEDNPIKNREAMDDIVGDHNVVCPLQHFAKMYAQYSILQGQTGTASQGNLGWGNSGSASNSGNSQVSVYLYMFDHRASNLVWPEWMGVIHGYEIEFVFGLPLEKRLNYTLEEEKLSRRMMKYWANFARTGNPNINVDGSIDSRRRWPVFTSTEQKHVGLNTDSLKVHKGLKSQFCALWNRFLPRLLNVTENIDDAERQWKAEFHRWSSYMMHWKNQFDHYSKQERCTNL
T2 sequence (P05067 672-711 limits assumed): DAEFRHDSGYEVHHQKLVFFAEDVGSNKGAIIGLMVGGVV
T1 sequence (Q8TDS4 whole entry, the tested form may be a part): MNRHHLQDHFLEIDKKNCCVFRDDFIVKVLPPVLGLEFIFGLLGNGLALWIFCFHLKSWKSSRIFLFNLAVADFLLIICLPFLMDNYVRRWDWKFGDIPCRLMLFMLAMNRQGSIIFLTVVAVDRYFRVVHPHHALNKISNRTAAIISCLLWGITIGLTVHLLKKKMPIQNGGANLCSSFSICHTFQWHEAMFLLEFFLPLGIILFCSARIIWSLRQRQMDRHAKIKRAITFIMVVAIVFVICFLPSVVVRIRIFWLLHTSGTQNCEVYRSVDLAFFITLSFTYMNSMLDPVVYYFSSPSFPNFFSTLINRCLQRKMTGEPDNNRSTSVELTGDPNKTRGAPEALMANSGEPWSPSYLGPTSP
T6 sequence (P34972 whole entry, the tested form may be a part): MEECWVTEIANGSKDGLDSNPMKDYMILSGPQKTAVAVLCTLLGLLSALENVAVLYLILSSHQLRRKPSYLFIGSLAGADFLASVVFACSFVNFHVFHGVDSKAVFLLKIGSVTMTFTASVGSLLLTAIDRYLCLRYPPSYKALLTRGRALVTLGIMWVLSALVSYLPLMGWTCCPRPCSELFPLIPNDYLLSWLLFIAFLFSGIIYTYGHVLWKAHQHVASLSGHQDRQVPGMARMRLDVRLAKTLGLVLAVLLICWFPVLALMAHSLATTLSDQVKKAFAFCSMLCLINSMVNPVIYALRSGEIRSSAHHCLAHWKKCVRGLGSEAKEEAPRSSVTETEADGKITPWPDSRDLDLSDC

| Structure (SMILES) | immobility in tail suspension test [1] | activity on PPARα/γ [2] | activity on TRPM7 [3] | β-arrestin recruitment / activation of GPR109A [4] | IC50 [6] | Ki [7, 14] | Vmax LB [7, 15] | Ki [7, 16] | Vmax MM [7, 17] | Ki [7, 18] | Vmax LB [7, 19] | Ki [7, 20] | inhibition type on BuChE [7] | Ki [7, 21] | Ki [8, 22] | Ki [8, 23] | Ki [8, 24] | Ki [8, 25] | Ki [8, 26] | inhibition type on AChE [8] | other results |
| --- | --- | --- | --- | --- | --- | --- | --- | --- | --- | --- | --- | --- | --- | --- | --- | --- | --- | --- | --- | --- | --- |
| CCCCCc1cc(O)c(C/C=C(\C)CCC=C(C)C)c(O)c1C(=O)O [CBGA, cannabigerolic acid] | 20.500 ± 6.764 s | dual PPARα/γ agonists | inhibitors of TRPM7 | no recruitment of β‐arrestin and no direct receptor activation | 47.7 ± 2.1 µM | 39.2 µM | 0.235 | 26 µM | 0.216 | 14.1 µM | 0.185 | 14 µM | noncompetitive inhibitors | 23.3 ± 12 µM | 13.5 µM | 9.1 µM | 9.6 µM | 6.5 µM | 8.1 µM | competitive inhibitors | NOR index (recognition index) [5]: 0.183 ± 0.052; Vmax MM ([7]; BuChE, Exp. 2, inhibitor 2.66 µM, Michaelis-Menten interpolation, no inhibitor 0.249): 0.209; Ki ([8]; AChE, inhibitor 2.50 µM, Michaelis-Menten interpolation, from increase of Km, mean Ki in μM, read-out: Ki MM): 12.2 µM; Ki ([8]; AChE, inhibitor 3.75 µM, Lineweaver-Burk equation, from increase of Km, mean Ki in μM, read-out: Ki LB): 14.4 µM; Ki ([8]; AChE, inhibitor 3.75 µM, Michaelis-Menten interpolation, from increase of Km, mean Ki in μM, read-out: Ki MM): 26.7 µM; Ki [8, 27]: 10.5 ± 2.9 µM; IC50 [9]: 1.4 ± 0.1 µM; efficiency in inhibiting mBACE-1, CBGA relative to CBDA ([9]; ratio of IC50 values): roughly 4 times; fEPSP slope after TBS [10]: 203.21 ± 22.55%; fEPSP amplitude 0–15 min (baseline) [10]: 100.8 ± 0.61%; fEPSP slope 0–15 min (baseline) [10]: 100.94 ± 1.15%; fEPSP amplitude 30–60 min after TBS [10]: 174.34 ± 6.97%; Trpm7 expression in hippocampus [11]: reverted to the basal level |
| CCCC(C)(C)c1ccc2c(c1)OC(C)(C)[C@@H]1CC=C(C)C[C@@H]21 [JWH-133] | – | – | – | – | – | – | – | – | – | – | – | – | – | – | – | – | – | – | – | – | β-arrestin recruitment at CB2 receptor [12]: strong β-arrestin recruitment |
| C=C(C)[C@@H]1CCC(C)=C[C@H]1c1c(O)cc(CCCCC)c(C(=O)O)c1O [CBDA, cannabidiolic acid] | 64.000 ± 12.523 s | dual PPARα/γ agonists | inhibitors of TRPM7 | no recruitment of β‐arrestin and no direct receptor activation | 57.5 ± 0.8 µM | 6.1 µM | 0.112 | 6.6 µM | 0.119 | 7.5 µM | 0.162 | 6.4 µM | noncompetitive inhibitors | 6.7 ± 0.6 µM | 55 µM | 32.1 µM | 10.5 µM | 10.6 µM | 3.4 µM | competitive inhibitors | blood–brain barrier crossing [13]: can cross the blood–brain barrier; Ki ([8]; AChE, inhibitor 1.75 µM, Lineweaver-Burk equation, from increase of Km, mean Ki in μM, read-out: Ki LB): 4.2 µM; Ki ([8]; AChE, inhibitor 1.75 µM, Michaelis-Menten interpolation, from increase of Km, mean Ki in μM, read-out: Ki MM): 13.9 µM; Ki [8, 27]: 7.9 ± 4.3 µM; IC50 [9]: 6.1 ± 0.2 µM; fEPSP slope after TBS [10]: 157.46 ± 14.5%; fEPSP amplitude 0–15 min (baseline) [10]: 99.97 ± 0.024%; fEPSP slope 0–15 min (baseline) [10]: 99.95 ± 0.27%; fEPSP amplitude 30–60 min after TBS [10]: 132.08 ± 2.83%; Trpm7 expression in hippocampus [11]: reverted to the basal level |
